Test results taken from patent US10183936B2, “Hepatitis B core protein allosteric modulators” (priority 2014, dated 2019).

Experiments:
[1] = tested on: HBV viral production in AD38 cells; experiment: Viral load production in AD38 cells by quantitative PCR of the HBV core sequence in supernatant; format: cell-based; conditions: Hepatitis B virus, 144 h; 10 μM compound, 6 days at 37° C., viral load in supernatant compared against DMSO control wells; read-out: AD38 Viral Load (CpAM/DMSO %) at 10 μM
Outline: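 AD38 cells seeded at 50,000/well, treated 6 days at 37° C with compound added as 10× solution in 10% DMSO. HBV core sequence in clarified supernatant quantified by TaqMan qPCR against known standards; viral load compared with DMSO control wells.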

AD38 cells = experiment: Viability of AD38 cells (Promega CellTiter-Glo) at the end of compound treatment; format: cell-based; conditions: 10 μM compound, 6 days, luminescence normalized against DMSO control wells (controls being 100%)
Outline: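 AD38 cells seeded at 50,000/well received compound from a 10× solution in 10% DMSO and were incubated 6 days at 37° C. Viability was then read by CellTiter-Glo luminescence in tetracycline-free medium with 2% FBS and 1% DMSO, normalized to DMSO control wells (100%) and reported as percent viability.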

| SMILES | activity at 10 µM [1] | AD38 Viability Normalized Result (CPAM/DMSO %) at 10 μM (AD38 cells) |
| --- | --- | --- |
| O=C(NCCc1ccc(-c2ccccc2)cc1)c1ccc2c(c1)NC(=O)c1ccccc1[S+]2[O-] (stereo not drawn) [Compound 1476] | 1% | 86% |
| O=C(NCc1cncs1)c1ccc2c(c1)NC(=O)c1ccccc1O2 [Compound 1593] | 3% | 133% |
| O=C(NCCc1cccnc1)c1ccc2c(c1)NC(=O)c1c(F)cccc1S2 [Compound 1555] | 36% | 81% |
| O=C(NCCc1cccnc1)c1ccc2c(c1)NC(=O)c1cc(F)ccc1S2 [Compound 1376] | 3% | 63% |
| CC(C)c1ncsc1CNC(=O)c1ccc2c(c1)NC(=O)c1ccccc1S2 [Compound 1614] | 2% | 45% |
| NC(=O)c1ccc2c(c1)NC(=O)c1ccccc1[S+]2[O-] (stereo not drawn) [Compound 1575] | 90% | 108% |
| COc1ccc2c(c1)C(=O)Nc1cc(C(=O)NCCC3CCCCC3)ccc1S2 [Compound 1272] | 24% | 102% |
| O=C(Nc1ccc2ncoc2c1)c1ccc2c(c1)NC(=O)c1cc(F)ccc1S2 [Compound 1331] | 43% | 88% |
| O=C(NCCc1cncs1)c1ccc2c(c1)NC(=O)c1cccc(F)c1S2 [Compound 1528] | 4% | 85% |
| O=C(NCc1cccnc1)c1ccc2c(c1)NC(=O)c1cc(F)ccc1S2 [Compound 1364] | 1% | 102% |
| O=C(NCC1CC1)c1ccc2c(c1)NC(=O)c1ccccc1S2 [Compound 1173] | 39% | 105% |
| O=C(Nc1ccc(-c2ccccc2)cc1)c1ccc2c(c1)NC(=O)c1cc(F)ccc1S2 [Compound 1326] | 23% | 95% |
| O=C1Nc2cc(S(=O)(=O)N3CCC(O)C3)ccc2Sc2ccccc21 (stereo not drawn) [Compound 1433] | 82% | 94% |
| O=C(NCc1cnc(-c2ccccc2)nc1)c1ccc2c(c1)NC(=O)c1cc(F)ccc1S2 [Compound 1315] | 4% | 103% |
| O=C(NCCc1cccs1)c1ccc2c(c1)NC(=O)c1ccccc1S2 [Compound 1190] | 1% | 70% |
| CN(C)S(=O)(=O)c1ccc(CCCNC(=O)c2ccc3c(c2)NC(=O)c2ccc(F)cc2S3)cc1 [Compound 1398] | 5% | 60% |
| CC(=O)N(CCc1ccccc1)Cc1ccc2c(c1)NC(=O)c1ccccc1S2 [Compound 1367, N-((11-oxo-10, 11-dihydrodibenzo [b,f] [1,4]thiazepin-8-yl)methyl)-N-phenethyl acetamide] | 33% | 88% |
| O=C(NCCc1nnc[nH]1)c1ccc2c(c1)NC(=O)c1ccccc1S2 [Compound 1551] | 51% | 91% |
| O=C(NCCc1cccc(O)c1)c1ccc2c(c1)NC(=O)c1ccccc1S2 [Compound 1118] | 61% | 95% |
| CN(C)S(=O)(=O)c1ccc(CCNC(=O)c2ccc3c(c2)NC(=O)c2ccccc2S3(=O)=O)cc1 [Compound 1619] | 12% | 122% |
| CC(CNC(=O)c1ccc2c(c1)NC(=O)c1ccccc1S2)c1ccccc1 (stereo not drawn) [Compound 1212] | 1% | 72% |
| O=C(Nc1nnco1)c1ccc2c(c1)NC(=O)c1cc(F)ccc1S2 [Compound 1537] | 36% | 98% |
| O=C(NCCc1cccnn1)c1ccc2c(c1)NC(=O)c1ccccc1S2 [Compound 1569] | 1% | 114% |
| O=C(Nc1ccc2ncsc2c1)c1ccc2c(c1)NC(=O)c1cc(F)ccc1S2 [Compound 1325] | 26% | 90% |
| O=C(NCc1cccnc1)c1ccc2c(c1)NC(=O)c1ccccc1O2 [Compound 1594] | 4% | 109% |
| O=C(NCCC1CCC(O)CC1)c1ccc2c(c1)NC(=O)c1ccccc1S2 (stereo not drawn) [Compound 1204] | 2% | 97% |
| O=C(NCc1cccc(O)c1)c1ccc2c(c1)NC(=O)c1ccccc1S2 [Compound 1202] | 7% | 107% |
